A short description of series [1]: Phase 1 single ascending dose study, urinary excretion. It counts as in vivo, human. The note with it: 10 mg dose; urine collected 24 hours. As for the experimental part:
Blood samples for analytical assay of HM01 and the 3 major metabolites (M2, M6 and M9) were collected at pre-dose (within 60 minutes prior to drug administration), and at 0.25, 0.5, 1, 1.5, 2, 3, 4, 6, 8, 12, 16, 24, 30, 36, 48, 60 and 72 hours post dose (18 samples). Urine was collected for 24 hours after dosing. Blood and urine samples were analyzed for HM01 and its metabolites concentrations using validated LC-MS/MS methods.
Additional parameters were derived from urine, i.e., Ae(0-24), the amount of the parent drug and metabolites excreted in 24 h, and CLR, the renal clearance.

A short description of the next series: Phase 1 SAD, stool diary. It counts as in vivo, human. To be noted: between dose groups. On the procedure: Blood samples for determination of growth hormone (GH), insulin-like growth factor-1 (IGF-1), adrenocorticotropic hormone (ACTH), prolactin, cortisol and aldosterone in serum at pre-dose and 0.5, 1, 2, 3, 4, 6 and 24 hours post-dose were collected by venous puncture. All biomarkers were determined using enzyme linked immunosorbent assays (ELISA). Simplified nutritional appetite questionnaire based on appetite assessments at Day −1 after dinner, and on Day 1 pre-dose, 1, 2, 4, 8, and 24 hours after dosing. Stool diary starting on Day 1 until discharge on Day 4.

`COc1ccc([C@H](C)NC(=O)N(C)[C@@H]2CCN(C)CC2(C)C)c(Cl)c1Cl.Cl` [AC01/HM01, 1-[(1S)-1-(2,3-dichloro-4-methoxyphenyl)ethyl]-3-methyl-3-[(4R)-1-methyl-3,3-dimethyl-4-piperidyl]-urea]: in series [1], the “fraction of the dose excreted in the urine” value is given as “Approximately 10%”. In addition, the “number of bowel movements per day and number of subjects with bowel movement” value in the series “Phase 1 SAD, stool diary” is on record as “no dose-related differences”.

The values are drawn from patent publication US12648941B2, “Piperidine urea derivatives for use as inotropic agents” (Helsinn Healthcare SA, priority 2021, dated 2026).
